Tests used:
[1] = tested on: hTRPM2 pore mutants (P983A, D987A, A1046C, N1049C); experiment: Whole-cell patch-clamp, pore mutants; type: cell-based, human; details: bilirubin
[2] = target: T1, hTRPM2 R302A/R358A (Homo sapiens, UniProt O94759, R302A/R358A); experiment: Whole-cell patch-clamp, N-terminal ADPR-binding site mutant; type: cell-based; details: bilirubin
T1 construct: expressed in transfected cells; host or cells: HEK293T cells, transient transfection (Lipofectamine 3000), GFP cDNA co-transfected as a separate marker
T1 sequence (O94759 whole entry R302A/R358A): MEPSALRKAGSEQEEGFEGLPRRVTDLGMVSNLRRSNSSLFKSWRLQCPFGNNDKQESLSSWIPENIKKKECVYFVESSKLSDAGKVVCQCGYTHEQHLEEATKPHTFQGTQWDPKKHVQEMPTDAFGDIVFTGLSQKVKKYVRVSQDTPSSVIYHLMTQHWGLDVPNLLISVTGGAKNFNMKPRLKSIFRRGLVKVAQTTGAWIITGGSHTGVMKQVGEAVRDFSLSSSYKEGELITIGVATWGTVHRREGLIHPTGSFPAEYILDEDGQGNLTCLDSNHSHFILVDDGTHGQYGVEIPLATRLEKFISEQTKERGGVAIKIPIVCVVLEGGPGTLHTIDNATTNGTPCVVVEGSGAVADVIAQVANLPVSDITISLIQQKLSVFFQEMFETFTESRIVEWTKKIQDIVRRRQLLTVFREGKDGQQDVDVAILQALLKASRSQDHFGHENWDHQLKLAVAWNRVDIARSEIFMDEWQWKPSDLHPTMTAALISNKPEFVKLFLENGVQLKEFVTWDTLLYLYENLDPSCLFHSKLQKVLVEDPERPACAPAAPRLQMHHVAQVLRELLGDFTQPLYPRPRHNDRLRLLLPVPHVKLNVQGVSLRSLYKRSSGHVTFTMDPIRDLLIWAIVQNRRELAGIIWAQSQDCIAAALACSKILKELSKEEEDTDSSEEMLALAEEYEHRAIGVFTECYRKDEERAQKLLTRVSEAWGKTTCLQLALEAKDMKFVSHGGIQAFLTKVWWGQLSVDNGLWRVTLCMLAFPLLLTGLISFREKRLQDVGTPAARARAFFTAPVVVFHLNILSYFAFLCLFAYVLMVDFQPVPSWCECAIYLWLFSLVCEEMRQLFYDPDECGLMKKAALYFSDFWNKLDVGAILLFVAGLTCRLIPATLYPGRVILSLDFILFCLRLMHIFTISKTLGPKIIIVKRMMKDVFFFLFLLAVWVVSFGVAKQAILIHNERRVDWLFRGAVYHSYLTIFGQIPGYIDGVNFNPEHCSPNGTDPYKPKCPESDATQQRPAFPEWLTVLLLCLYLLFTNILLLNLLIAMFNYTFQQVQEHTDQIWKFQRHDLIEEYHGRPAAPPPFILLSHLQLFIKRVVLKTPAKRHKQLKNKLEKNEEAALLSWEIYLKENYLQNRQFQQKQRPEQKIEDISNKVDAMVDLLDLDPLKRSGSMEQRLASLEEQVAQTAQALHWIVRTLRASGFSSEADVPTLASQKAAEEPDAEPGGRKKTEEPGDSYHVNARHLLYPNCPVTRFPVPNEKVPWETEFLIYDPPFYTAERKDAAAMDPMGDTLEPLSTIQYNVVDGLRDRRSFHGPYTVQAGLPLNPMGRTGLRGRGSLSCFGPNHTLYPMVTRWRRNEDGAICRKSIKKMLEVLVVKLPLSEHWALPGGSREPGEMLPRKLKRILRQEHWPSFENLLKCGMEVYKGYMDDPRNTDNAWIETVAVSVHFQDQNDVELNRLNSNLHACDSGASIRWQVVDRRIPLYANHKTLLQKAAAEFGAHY
Protocol: (§1) Human embryonic kidney 293 (HEK293) cells with tetracycline-inducible expression of human TRPM2 channel (hTRPM2) were cultured in a mixed medium containing DMEM/ F-12 (Gibco, USA) and 10% fetal bovine serum (Gibco, USA) as well as blasticidin (50 μg/ml, Invivogen, USA) and zeocin (0.4 mg/ml, Invivogen, USA). The expression of hTRPM2 was induced by substituting blasticin and zeocin for tetracycline (1 μg/ml, Sigma, USA) 24-48 hours before use. TRPM2 channel mutants were transiently expressed in HEK293T cells by transfection with using Lipofectamine 3000. Briefly, HEK293T cells were transiently transfected with cDNAs encoding the mutant hTRPM2 channel. The cDNA for GFP was co-transfected as a marker for identification of the transfected cells for electrophysiological experiments 16-24 hours after transfection. […]
(§2) Coronal cortical slices were transferred into the recording chamber and continuously perfused at room temperature with ACSF oxygenated with 95% O2 and 5% CO2. […] For whole-cell or single channel recordings from transfected HEK-293T cells, the coverslips were placed in a culture dish (35 × 35 mm, Sorfa) containing HEPES based extracellular solution (ECS) and recorded by patch-clamp technique. […] Each coverslip was recorded only once with different drug exposures. […]

[3] = target: T2, TRPM2-ΔN/ΔC (Homo sapiens, UniProt O94759); experiment: Whole-cell patch-clamp, truncation mutant; type: cell-based; details: bilirubin
T2 construct: expressed in transfected cells; host or cells: HEK293T cells, transient transfection, GFP cDNA co-transfected as a separate marker
T2 sequence (O94759 1-1449 isoform O94759-2): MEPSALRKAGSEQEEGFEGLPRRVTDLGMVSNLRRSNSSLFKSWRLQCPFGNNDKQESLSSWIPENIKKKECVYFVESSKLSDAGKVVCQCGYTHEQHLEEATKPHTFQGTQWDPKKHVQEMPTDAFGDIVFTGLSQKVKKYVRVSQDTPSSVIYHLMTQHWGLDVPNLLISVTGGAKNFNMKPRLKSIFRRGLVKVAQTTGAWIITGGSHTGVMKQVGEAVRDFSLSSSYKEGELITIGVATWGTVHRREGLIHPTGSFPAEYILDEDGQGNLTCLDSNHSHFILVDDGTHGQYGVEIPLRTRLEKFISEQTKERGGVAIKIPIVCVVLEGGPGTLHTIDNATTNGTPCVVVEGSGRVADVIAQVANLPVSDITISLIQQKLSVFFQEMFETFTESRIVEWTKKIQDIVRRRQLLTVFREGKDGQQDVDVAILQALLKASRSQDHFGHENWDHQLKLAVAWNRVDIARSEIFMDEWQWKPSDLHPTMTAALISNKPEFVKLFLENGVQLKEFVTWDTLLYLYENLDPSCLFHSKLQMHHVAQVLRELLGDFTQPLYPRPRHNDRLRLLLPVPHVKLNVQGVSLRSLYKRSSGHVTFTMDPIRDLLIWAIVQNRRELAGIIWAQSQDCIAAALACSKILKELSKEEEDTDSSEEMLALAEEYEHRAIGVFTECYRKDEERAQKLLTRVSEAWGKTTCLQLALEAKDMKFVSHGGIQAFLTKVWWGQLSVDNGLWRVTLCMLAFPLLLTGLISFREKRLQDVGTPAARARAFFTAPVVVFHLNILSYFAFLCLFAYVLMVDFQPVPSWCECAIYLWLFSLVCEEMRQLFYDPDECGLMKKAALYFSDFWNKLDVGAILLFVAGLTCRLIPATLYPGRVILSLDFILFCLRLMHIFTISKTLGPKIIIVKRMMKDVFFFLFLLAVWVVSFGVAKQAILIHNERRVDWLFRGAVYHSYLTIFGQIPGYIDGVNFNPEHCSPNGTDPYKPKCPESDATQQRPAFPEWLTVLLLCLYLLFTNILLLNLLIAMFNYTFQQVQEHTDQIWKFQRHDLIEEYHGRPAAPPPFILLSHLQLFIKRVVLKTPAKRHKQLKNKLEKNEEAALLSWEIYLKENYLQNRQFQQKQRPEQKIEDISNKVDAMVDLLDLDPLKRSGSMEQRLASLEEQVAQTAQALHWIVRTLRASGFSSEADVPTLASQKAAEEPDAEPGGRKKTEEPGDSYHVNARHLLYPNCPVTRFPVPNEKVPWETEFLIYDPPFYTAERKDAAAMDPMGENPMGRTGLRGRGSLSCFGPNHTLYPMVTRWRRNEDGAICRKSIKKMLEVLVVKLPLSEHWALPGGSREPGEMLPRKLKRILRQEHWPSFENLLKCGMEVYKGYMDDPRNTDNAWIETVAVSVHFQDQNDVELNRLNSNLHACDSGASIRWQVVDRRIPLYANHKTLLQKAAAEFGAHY
Protocol: as §1, §2

[4] = target: T3, hTRPM2 R1433A (Homo sapiens, UniProt O94759, R1433A); experiment: Whole-cell patch-clamp, C-terminal NUDT9-H domain mutant; type: cell-based; details: bilirubin
T3 construct: expressed in transfected cells; host or cells: HEK293T cells, transient transfection, GFP cDNA co-transfected as a separate marker
T3 sequence (O94759 whole entry R1433A): as the sequence (O94759 whole entry R302A/R358A) above, with A302R, A358R, R1433A counted along it
Protocol: as §1, §2

[5] = tested on: tMCAO Trpm2−/− mice; experiment: tMCAO ischemia model, infarct volume by TTC staining, Trpm2-/- mice; type: in vivo, mouse; details: 24 h after tMCAO
[6] = tested on: tMCAO Trpm2+/+ mice; experiment: tMCAO ischemia model, infarct volume by TTC staining, Trpm2+/+ mice; type: in vivo, mouse; details: for infarct volume: 24 h after tMCAO
[7] = tested on: layer 5 cortical pyramidal neurons from adult Trpm2+/+ mice; experiment: Whole-cell current-clamp, intrinsic excitability in brain slices, Trpm2+/+; type: cell-based, mouse
[8] = tested on: cortical neurons in adult Trpm2+/+ brain slices; details: bilirubin, 1 h of incubation, n = 6
[9] = Serum and CSF TB / UCB measurement after bilirubin injection and tMCAO; type: in vivo, mouse; details: 24 h after tMCAO
Protocol: Trpm2^+/+, Trpm2^-/- and D1066A C57BL/6 mice were anesthetized by intraperitoneal injection of pentobarbital (55 mg/kg) 24 hours before tMCAO operation, and then fixed in the stereotactic setup (RWD Life Science). The skin above the skull from the base of the neck up to in between the eyes was cut open. A hole directly above the right ventricle was made with a grinding drill to allow insertion of the micro syringe into the lateral ventricle (coordinates: 1.1 mm laterally to the right and 0.5 mm posterior of the bregma, 2.5 mm deep). CSF was collected by using the micro injection pump (speed: 0.2 μl/min), after which the syringe was withdrawn, and the skin was sutured. The mice were removed from the stereotactic setup and 50 μl blood was taken through the orbital venous plexus. Mice were then placed on 37 °C heating blanket till they regained consciousness and returned to the cage. 1 or 24 hours after tMCAO, animals were anesthetized using a 2% isoflurane-oxygen mixture. CSF and blood were collected in the same way before sacrifice. All samples were centrifuged at 3000 r/min. Total bilirubin concentration of supernatants was measured with the Bilirubin Reagent Kit (Sigma). Samples were transferred to a 96-plates and mixed with reaction solution before measurements of their absorbance were made at 530 nm 10 minutes later. UCB concentration was measured with UnaG, a bilirubin-inducible fluorescent protein from Japanese eel muscle. For standard calibration curve of fluorescence intensity, a 100 μl reaction mixture containing 50 μl UnaG solution (1 μM) and 50 μl artificial bilirubin solution with concentration gradient (1.4278 μM, 0.7139 μM, 0.3573 μM, 0.1785 μM, 0.0893 μM and 0 μM) was prepared. After 10 minutes of reaction, the fluorescence intensity was detected by microplate reader (Synergy H1M, Bio Tek) with fluorescence filters for excitation and emission wavelengths of 485 and 528 nm, respectively. Serum and CSF samples were diluted 20-fold with PBS and fluorescence intensity was measured. The UCB levels were extrapolated from the standard curve.

C=CC1=C(C)/C(=C/c2[nH]c(Cc3[nH]c(/C=C4\NC(=O)C(C)=C4C=C)c(C)c3CCC(=O)O)c(CCC(=O)O)c2C)NC1=O [bilirubin, Bilirubin]
activation of mutant TRPM2 currents [1]: effectively activated
activation of mutant TRPM2 currents [2]: remained responsive
activation of mutant TRPM2 currents [3]: eliminated the activation of the TRPM2 channel by ADPR but not by bilirubin
activation of mutant TRPM2 currents [4]: remained responsive
infarct volume ([5]; Trpm2−/− mice, bilirubin 50 μg/g i.p. 30 min prior to 30 min tMCAO, n = 15): 25.69% ± 4.46%
infarct volume ([5]; female Trpm2−/− mice, n = 5): 30.63 ± 8.71%
infarct volume ([5]; male Trpm2−/− mice, n = 10): 23.22 ± 5.25%
infarct volume ([6]; Trpm2+/+ mice, bilirubin 50 μg/g i.p. 30 min prior to 30 min tMCAO, n = 14): 55.31% ± 3.68%
severity of brain damage, Bil group vs Ctrl group ([6]; day 7 after tMCAO): significantly higher
infarct volume ([6]; female Trpm2+/+ mice, n = 4): 49.56 ± 7.40%
infarct volume ([6]; male Trpm2+/+ mice, n = 10): 57.61 ± 4.24%
excitability of cortical neurons ([7]; Trpm2+/+ slices, bilirubin for 5 and 20 min, synaptic blockers present): significantly increased
spike amplitude ([7]; Trpm2+/+, 20 min after bilirubin application, 2.5 nA current in 0.3 ms): significantly attenuated
mortality of cortical neurons [8]: 60.84% ± 2.13%
serum and CSF UCB concentration, Bil group vs Ctrl group ([9]; D1066A KI mice, n = 9): comparable
UCB concentration in serum and CSF, Bil group vs Ctrl group ([9]; Trpm2+/+ mice): much higher
